Measurements reported in US6309842A, “Use of modified tethers in screening compound libraries” (Glaxo Wellcome Inc., priority 1997, dated 2001).

Columns and labels:
Type in all cases: cell-based
[1] = target: T1, yeast α-factor receptor (STE2) (Saccharomyces cerevisiae, UniProt D6VTK4); assay: ELISA of agonist-induced well marking by ARY84 (dephosphorylation of AF12402 tether, 3E7 detection); conditions: for Well-marking activity: selective conditions
T1 construct: expressed in transfected cells; host or cells: yeast strain ARY84 (Δste2::ura3, plasmid pRS416(URA3)-STE2)
T1 sequence (D6VTK4 1-431): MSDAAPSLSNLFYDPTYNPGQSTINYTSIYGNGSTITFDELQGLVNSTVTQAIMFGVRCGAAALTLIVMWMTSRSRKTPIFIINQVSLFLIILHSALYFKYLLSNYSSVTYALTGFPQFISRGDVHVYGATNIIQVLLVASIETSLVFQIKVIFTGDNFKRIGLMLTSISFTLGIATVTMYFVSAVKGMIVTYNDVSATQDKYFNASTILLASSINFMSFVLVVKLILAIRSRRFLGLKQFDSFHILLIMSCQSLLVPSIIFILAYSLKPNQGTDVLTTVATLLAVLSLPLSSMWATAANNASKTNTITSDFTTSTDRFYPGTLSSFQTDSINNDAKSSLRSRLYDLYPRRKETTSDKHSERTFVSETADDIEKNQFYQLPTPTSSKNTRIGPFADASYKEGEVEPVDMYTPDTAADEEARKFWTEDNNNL
Description: A plastic 96-well immunoassay plate (Beckman #373660) was coated with 0.41 μM streptavidin for 1 hour at 37° C. After washing, it was blocked with 1×PBS, 1% bovine serum albumin (BSA) for 1 hr at 37° C. After washing, 100 nM of AF12402 ((H)-(Phospho-Y)[…](biotin)(OH)) (SEQ ID NO:7) in 1×PBS, 0.1% BSA was incubated on the plate overnight at 4° C. The wells were washed with 1×PBS and a yeast culture containing ARY84 at a density of OD600 =0.1 in defined medium was added to the plate. The following conditions were tested: +growth selection, no α-factor; +growth selection, +500 nM α-factor.
After addition of yeast the culture was either removed immediately (t=0; wells were filled with 1×PBS/ 0.1% BSA) or after 24 hr incubation at 30° C. At the end of the incubation, the wells were washed and developed using a standard protocol with 1 nM 3E7 antibody for the primary development (4° C., 1 hr) and 1/1000 diluted alkaline phosphatase conjugated goat anti-mouse antibody (Gibco) at 4° C. for 1 hr. Binding of antibodies was quantitated using a standard colorimetric alkaline-phosphatase reaction (see Cull et al., PNAS 89, 1865-1869 (1992)).

[2] = target: T2, yeast alpha factor receptor (STE2) (Saccharomyces cerevisiae, UniProt D6VTK4); assay: Secreted β-galactosidase reporter in yeast ARY 110 (FUS1 promoter); conditions: ARY110 culture supernatants
T2 construct: expressed in transfected cells; host or cells: yeast strain ARY 110 with plasmid pRS416-STE2
T2 sequence (D6VTK4 1-431): T1 sequence (D6VTK4 1-431)
From the text: A second expression system links the A. niger secreted β-galactosidasegene to the yeast mating pathway/FUS1 promoter induction system. Using the integrating beta-galactosidase encoding plasmid pCMGy69 in concert with the yeast alpha factor receptor (STE2) encoding plasmid, PRS416-STE2 (centomeric), a yeast strain designated ARY 110 was produced with the following genotype; (far1 his3 sst2 FUS1-HIS3 FUS1-sBeta-Gal STE2).

[3] = target: T1, yeast α-factor receptor (STE2); assay: Secretion of acid phosphatase into the medium by yeast ARY84 (pNPP assay); conditions: for % of total acid-phosphatase activity in medium: 24 Hrs; for Induction ratio: growth selection, 500 nM vs no alpha-factor
From the text: The strain used in these experiments is designated ARY84 (Mata prc1-407 prb1-1122 pep4-3 leu2, 3-112 ura3-52 trp1 far1::ura3 Δhis3::APT2 FUS1::HIS3 Δste2::ura3 Δsst2::ura3 Δpho5::TRP1 LEU2::pCMGy64(::FUS1-PHO3) [pRS416(URA3)-STE2]. This yeast is engineered to grow in the presence of an agonist, and also to secrete acid phosphatase as a result of agonist stimulation. The yeast strain used in these experiments bears a mutation in the SST2 gene to enhance sensitivity to agonist, an inactivating mutation in the FAR1 gene to allow growth in the presence of agonist and an inactivating mutation in the HIS3 gene. The FUS1 gene promoter stimulates transcription of two reporter genes. The first reporter gene is HIS3. 3-aminotriazole can be used to titrate out the background activity of the HIS3 gene product resulting in growth arrest due to histidine starvation. Stimulation of HIS3 transcription from the FUS1 promoter overcomes the inhibitory effect of 3-aminotriazole, allowing growth of agonist-stimulated yeast cells. The second reporter gene is PHO3 (which was obtained by PCR from yeast genomic DNA). This gene encodes secreted yeast acid phosphatase (see Johnston & Carlson, in The Molecular and Cellular Biology of the Yeast Saccharomyce, (eds. Jones et al., CSHP, 1992) Vol. 2, Ch. 5). STE2 encodes the yeast α-factor receptor. The mutation in the […] reduces the background of acid phosphatase secreted by the yeast, though this mutation may not be necessary.
α-factor is the natural peptide agonist of the yeast α-factor receptor. The term "Growth selection" refers to growing the yeast in a defined medium (e.g., synthetic complete) (see Rose et al., Methods in Yeast Genetics: A Laboratory Course Manual (CSHLP, 1990)) lacking histidine and containing sufficient 3-aminotriazole to inhibit growth such that yeast only grow when the HIS3 gene product is expressed from the FUS1 promoter following stimulation of the STE2 receptor by α-factor. Lack of growth selection is achieved by leaving out the 3-aminotriazole and adding histdine.
Acid phosphatase activity in the yeast growth medium was quantitated using a […] assay with the substrate para-nitrophenyl phosphate (pNPP), measuring the appearance of yellow color (Payne et al., Gene 163, 19-26 (1995). When yeast were grown under various growth conditions (+/-saturating (500 nM) concentrations of α-factor, between 26% and 69% of the total acid phosphatase activity is secreted into the medium (Table 1).

α-factor
Increase in OD405 compared to wells lacking α-factor ([1]; 24 hr growth of yeast in the wells, 0.5 µM): 4 fold
Well-marking activity ([1]; T = 0, 500 nM alpha factor): 0.11 OD405 units/minute
Well-marking activity ([1]; T = 0, 500 nM alpha factor, listed as alpha factor): 0.113 OD405 units/minute
Well-marking activity ([1]; T = 24 Hrs, 500 nM alpha factor): 0.8 OD405 units/minute
beta-galactosidase activity in supernatants over non-induced levels [2]: up to 79 fold
Increase in acid phosphatase activity in the medium compared to absence of α-factor ([3]; 500 nM α-factor, no growth selection, 24 hr): 16-20 fold
% of total acid-phosphatase activity in medium ([3]; alpha-factor +, growth selection +): 63%
% of total acid-phosphatase activity in medium ([3]; alpha-factor +, growth selection -): 69%
Acid phosphatase activity in the medium ([3]; 24 hours, selection +, alpha-factor +, clone #1): 0.01279 OD405 units/minute
Acid phosphatase activity in the medium ([3]; 24 hours, selection +, alpha-factor +, clone s3): 0.02892 OD405 units/minute
Acid phosphatase activity in the medium ([3]; 24 hours, selection -, alpha-factor +, clone #1): 0.06481 OD405 units/minute
Acid phosphatase activity in the medium ([3]; 24 hours, selection -, alpha-factor +, clone s3): 0.1001 OD405 units/minute
Acid phosphatase activity in the medium ([3]; 48 hr, growth selection (+10 mM 3-aminotriazole), 500 nM alpha-factor, clone #1): 0.05768 OD405 units/minute
Acid phosphatase activity in the medium ([3]; 48 hr, growth selection (+10 mM 3-aminotriazole), 500 nM alpha-factor, clone s3): 0.1062 OD405 units/minute
Induction ratio ([3]; 48 hr, clone #1): 32.4
Induction ratio ([3]; 48 hr, clone s3): 58.7
Increase in acid phosphatase activity in the medium compared to absence of α-factor ([3]; with growth selection, 48 hours, 0.5 µM): 32-58 fold
